Test results from ChEMBL document CHEMBL2390818, “Peripherally acting novel lipo-endomorphin-1 peptides in neuropathic pain without producing constipation” (Bioorg Med Chem, 2013).
Active and inactive are the calls of the source. Peptide text beside a SMILES is read from it.

Columns and labels:
[1] = test system: Rattus norvegicus; test: Antinociceptive activity in contralateral hindpaw of Sprague-Dawley rat chronic constriction injury model at 5 umol/kg, iv administered as single bolus dose separated by 2 to 3 days wash-out period; type: functional, organism-based
[2] = test system: Rattus norvegicus; test: Antiallodynic activity in iv dosed Sprague-Dawley rat chronic constriction injury model assessed as change in ipsilateral hindpaw withdrawal threshold administered as single bolus dose separated by 2 to 3 days wash-out period measured at 15 mins to 2 hrs post dose; type: functional, organism-based
[3] = test system: Rattus norvegicus; test: Antiallodynic activity in Sprague-Dawley rat chronic constriction injury model assessed as change in ipsilateral hindpaw withdrawal threshold at 0.5 umol/kg, iv administered as single bolus dose separated by 2 to 3 days wash-out period; type: functional, organism-based
[4] = test system: Rattus norvegicus; test: Antiallodynic activity in iv dosed Sprague-Dawley rat chronic constriction injury model assessed as change in ipsilateral hindpaw withdrawal threshold administered as single bolus dose separated by 2 to 3 days wash-out period; type: functional
[5] = test system: Rattus norvegicus; test: Antiallodynic activity in Sprague-Dawley rat chronic constriction injury model assessed as change in ipsilateral hindpaw withdrawal threshold at 0.16 to 16 umol/kg, iv administered as single bolus dose separated by 2 to 3 days wash-out period; type: functional, organism-based
[6] = test system: Rattus norvegicus; test: Toxicity in Sprague-Dawley rat assessed as induction of constipation measured as gastrointestinal propulsion rate at 16 umol/kg, iv administered as single bolus dose prior to aqueous activated charcoal suspension treatment measured after 1 hr (reference value: 65.3 +/- 3.1%); type: organism-based; conditions: in vivo
[7] = test system: Rattus norvegicus; test: Toxicity in Sprague-Dawley rat castor oil-induced diarrhoea model assessed as induction of constipation at 1.6 to 16 umol/kg, iv administered as single bolus dose incubated for 5 mins prior to castor oil-challenge measured after 8 hrs; type: organism-based; conditions: in vivo
[8] = test system: Rattus norvegicus; test: Antiallodynic activity in iv dosed Sprague-Dawley rat chronic constriction injury model assessed as change in ipsilateral hindpaw withdrawal threshold administered as single bolus dose; type: functional
[9] = test system: Rattus norvegicus; test: Toxicity in Sprague-Dawley rat assessed as induction of respiratory depression measured as change in hypercapnia-induced stimulation of minute ventilation at 1.6 umol/kg, iv administered as single bolus dose after 0.5 to 2 hrs; type: organism-based; conditions: in vivo
[10] = test system: Rattus norvegicus; test: Antiallodynic activity in Sprague-Dawley rat chronic constriction injury model assessed as change in ipsilateral hindpaw withdrawal threshold at 0.5 to 5 umol/kg, iv administered as single bolus dose; type: functional, organism-based

CCCCCCC(N)C(=O)N[C@@H](Cc1c(C)cc(O)cc1C)C(=O)N1CCC[C@H]1C(=O)N[C@@H](Cc1c[nH]c2ccccc12)C(=O)N[C@@H](Cc1ccccc1)C(N)=O (stereo partly specified) (HELM PEPTIDE1{[CCCCCCC(N)C(=O)[*:2]].[Cc1cc(O)cc(C)c1C[C@H](N[*:1])C(=O)[*:2]].P.W.F.[am]}$$$$V2.0)
Activity [1]: inactive
Activity [2]: Dose-dependent effect
Activity [3]: Active
ED50 [4]: 6.18 µmol/kg

CN1CC[C@]23c4c5ccc(O)c4O[C@H]2[C@@H](O)C=C[C@H]3[C@H]1C5
ED50 [4]: 2.64 µmol/kg

Cc1cc(O)cc(C)c1C[C@H](N)C(=O)N1CCC[C@H]1C(=O)N[C@@H](Cc1c[nH]c2ccccc12)C(=O)N[C@@H](Cc1ccccc1)C(N)=O
Activity [5]: inactive

NC(=O)[C@H](Cc1ccccc1)NC(=O)[C@H](Cc1c[nH]c2ccccc12)NC(=O)[C@@H]1CCCN1C(=O)[C@@H](N)Cc1ccc(O)cc1
Activity [5]: inactive

CCCCCCC(N)C(=O)N[C@@H](Cc1ccc(O)cc1)C(=O)N1CCC[C@H]1C(=O)N[C@@H](Cc1c[nH]c2ccccc12)C(=O)N[C@@H](Cc1ccccc1)C(N)=O (stereo partly specified) (HELM PEPTIDE1{[CCCCCCC(N)C(=O)[*:2]].Y.P.W.F.[am]}$$$$V2.0)
Activity [6]: 77%
Activity [7]: Non-toxic
ED50 [8]: 6.64 µmol/kg
Activity [1]: inactive
Activity [9]: Non-toxic
Activity [2]: Dose-dependent effect
Activity [3]: Active
ED50 [4]: 6.58 µmol/kg
Activity [10]: Active
